Among the data in ChEMBL document CHEMBL1141012, “Cytotoxic bromotyrosine derivatives from a two-sponge association of Jaspis sp. and Poecillastra sp” (Bioorg Med Chem Lett, 2008) are EC50 values, retold here.

Values after ≈ are worked out from the molar mass of the structure shown.

Assay type in all cases: functional, cell-based
The test system of one test is A549. Briefly: Cytotoxicity against human A549 cells.
The next test has as its system HCT-15. In words: Cytotoxicity against human HCT15 cells.
In another test the test system is SK-MEL-2. In words: Cytotoxicity against human SK-MEL-2 cells.
Another test deals with XF498. In words: Cytotoxicity against human XF498 cells.
For another test, the system named is SK-OV-3. In words: Cytotoxicity against human SKOV3 cells.

Regarding `O=C1NCCSSCCNC(=O)/C(=N/O)Cc2ccc(c(Br)c2)Oc2cc(cc(Br)c2O)C/C(=N\O)C(=O)NCCSSCCNC(=O)/C(=N/O)Cc2cc(Br)c(O)c(c2)Oc2ccc(cc2Br)C/C1=N\O` [CYCLOBISPSAMMAPLIN A], the EC50 was determined as 1.95 µg/mL (≈ 1.47 µM) in the test with A549; 3.82 µg/mL (≈ 2.88 µM) with HCT-15; 1.14 µg/mL (≈ 0.861 µM) in the test with SK-MEL-2; 2.88 µg/mL (≈ 2.17 µM) in the test with XF498; 1.21 µg/mL (≈ 0.913 µM) with SK-OV-3.

Consider `COc1cccc2c1C(=O)c1c(O)c3c(c(O)c1C2=O)C[C@@](O)(C(=O)CO)C[C@@H]3O[C@H]1C[C@H](N)[C@H](O)[C@H](C)O1` [DOXORUBICIN], for which the EC50 amounted to 0.01 µg/mL (≈ 0.0184 µM) with A549; 0.03 µg/mL (≈ 0.0552 µM) with HCT-15; 0.01 µg/mL (≈ 0.0184 µM) with SK-MEL-2; 0.03 µg/mL (≈ 0.0552 µM) in the test on XF498; 0.01 µg/mL (≈ 0.0184 µM) with SK-OV-3.

On to `CN(C)C(=N)N.CN(C)C(=N)N.O=C(NCCSSCCNC(=O)/C(Cc1ccc(OS(=O)(=O)O)c(Br)c1)=N/O)/C(Cc1ccc(OS(=O)(=O)O)c(Br)c1)=N/O` [PSAMMAPLIN A SULFATE DIGUANIDIUM SALT], for which the EC50 was determined as 12.3 µg/mL with A549; 43.2 µg/mL with HCT-15; 4.48 µg/mL with SK-MEL-2; 16.9 µg/mL with XF498; 1.79 µg/mL with SK-OV-3.

For the compound `O=C(NCCSSCCNC(=O)/C(Cc1ccc(O)c(Br)c1)=N/O)/C(Cc1ccc(OS(=O)(=O)[O-])c(Br)c1)=N\O.[Na+]` [PSAMMAPLIN A SULFATE SODIUM SALT], the EC50 came out at 0.18 µg/mL with A549; 1.25 µg/mL in the test with HCT-15; 1.13 µg/mL in the test with SK-MEL-2; 0.18 µg/mL with XF498; 0.16 µg/mL in the test with SK-OV-3.

Consider `N#CSCCNC(=O)/C(Cc1ccc(O)c(Br)c1)=N/O` [PSAMMAPLIN B], for which the EC50 in the test with A549 is 12.8 µg/mL (≈ 35.8 µM); in the test with HCT-15, more than 30 µg/mL; with SK-MEL-2, 19.4 µg/mL (≈ 54.2 µM); with XF498 it was 10.9 µg/mL (≈ 30.5 µM); in the test with SK-OV-3, 9.27 µg/mL (≈ 25.9 µM).

Consider `NC(=O)C(=O)NCCSSCCNC(=O)/C(Cc1ccc(O)c(Br)c1)=N/O` [PSAMMAPLIN E], for which the EC50 with A549 worked out at 1.47 µg/mL (≈ 3.07 µM); in the test on HCT-15, 1.92 µg/mL (≈ 4.01 µM); in the test on SK-MEL-2, 0.21 µg/mL (≈ 0.438 µM); in the test on XF498, 1.63 µg/mL (≈ 3.4 µM); in the test on SK-OV-3 it was 0.19 µg/mL (≈ 0.396 µM).

For the compound `CS(=O)(=O)CCNC(=O)/C(Cc1ccc(O)c(Br)c1)=N/O` [PSAMMAPLIN I], the EC50 in the test on A549 was found to be 4.15 µg/mL (≈ 10.9 µM); with HCT-15 it was 6.51 µg/mL (≈ 17.2 µM); in the test on SK-MEL-2 it was 2.84 µg/mL (≈ 7.49 µM); with XF498, 2.96 µg/mL (≈ 7.81 µM); with SK-OV-3 it was 1.76 µg/mL (≈ 4.64 µM).

For `COC(=O)CCNC(=O)/C(Cc1ccc(O)c(Br)c1)=N/O` [PSAMMAPLIN M], the EC50 in the test with A549, in the test on HCT-15, in the test on SK-MEL-2, in the test with XF498 and in the test on SK-OV-3 was more than 30 µg/mL in each case.

The term EC50 denotes the concentration at which the effect is half-maximal. A high value points to lower potency in that assay.
